biological target: Factor D (Homo sapiens (Human), UniProt P00746); assay: Factor D esterolytic assay (Z-Lys-SBzl substrate, DTNB, 405 nm); format: biochemical; settings: Z-Lys-SBzl 1.29 mM, pH 7.5, 10% DMSO, tested a minimum of three times, read-out: Measured Ki (IC50) Value for Compounds: IC50
Procedure, shortened: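 Human Factor D ([…]) with 1.29 mM Z-Lys-SBzl in 100 mM HEPES, 500 mM NaCl, pH 7.5, 10% DMSO; substrate added immediately or after room-temperature preincubation. Released thiol reacted with DTNB, rate followed at 405 nm for 600 sec, 690 nm background subtracted. IC50 from percent inhibition versus uninhibited rate, n≥3.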

Chain of Factor D (P00746 26-253): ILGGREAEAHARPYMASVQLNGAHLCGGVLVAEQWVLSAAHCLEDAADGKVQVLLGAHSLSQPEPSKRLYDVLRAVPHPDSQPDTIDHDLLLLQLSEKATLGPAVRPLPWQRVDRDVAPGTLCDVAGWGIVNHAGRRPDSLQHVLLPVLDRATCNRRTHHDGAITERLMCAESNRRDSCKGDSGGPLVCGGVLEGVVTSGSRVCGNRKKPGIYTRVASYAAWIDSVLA

Row | IC50 [nM] | SMILES
1 | < 1000 | NCc1cccc(-c2cc(COc3ccccc3CC(=O)O)cc3c2ccn3CC2CC2)c1 [Compound 148e, 2-(2-((4-(3-(aminomethyl)phenyl)-1-(cyclopropylmethyl)-1H-indol-6-yl)methoxy)phenyl)acetic acid]
2 | < 1000 | NCc1cccc(-c2cc(COc3ccccc3CC(=O)O)cc3c2ccn3CC2CC2)c1F [Compound 149b, 2-(2-((4-(3-(aminomethyl)-2-fluorophenyl)-1-(cyclopropylmethyl)-1H-indol-6-yl)methoxy)phenyl)acetic acid]
3 | < 1000 | Cn1ccc2c(-c3ccnc(CN)c3F)cc(COc3ccccc3CC(=O)O)cc21 [Compound 150b, 2-(2-((4-(2-(aminomethyl)-3-fluoropyridin-4-yl)-1-methyl-1H-indol-6-yl)methoxy)phenyl)acetic acid]
4 | < 1000 | Cn1ncc2c(-c3ccnc(CN)c3F)cc(COc3ccccc3CC(=O)O)cc21 [Compound 151c, 2-(2-((4-(2-(aminomethyl)-3-fluoropyridin-4-yl)-1-methyl-1H-indazol-6-yl)methoxy)phenyl)acetic acid]
5 | < 1000 | NCc1cccc(-c2cc(COc3ccccc3CC(=O)O)cc3c(C(F)(F)F)coc23)c1 [Compound 154g, 2-(2-((7-(3-(aminomethyl)phenyl)-3-(trifluoromethyl)benzofuran-5-yl)methoxy)phenyl)acetic acid]
6 | < 1000 | NCc1cc(-c2cc(COc3ccccc3CC(=O)O)cc3c2ccn3CC2CC2)ccn1 [Compound 155c, 2-(2-((4-(2-(aminomethyl)pyridin-4-yl)-1-(cyclopropylmethyl)-1H-indol-6-yl)methoxy)phenyl)acetic acid]
7 | < 1000 | NCc1cccc(-c2cc(COc3ccccc3CC(=O)O)cc3[nH]ncc23)c1 [Compound 156b, 2-(2-((4-(3-(aminomethyl)phenyl)-1H-indazol-6-yl)methoxy)phenyl)acetic acid]
8 | < 1000 | NCc1cccc(-c2cc(COc3ccccc3CC(=O)O)cc3nn(CC4CC4)cc23)c1F [Compound 164e, 2-(2-((4-(3-(aminomethyl)-2-fluorophenyl)-2-(cyclopropylmethyl)-2H-indazol-6-yl)methoxy)phenyl)acetic acid]
9 | < 1000 | NCc1cccc(-c2cc(COc3ccccc3CC(=O)O)cc3nc[nH]c23)c1 [Compound 167e, 2-(2-((7-(3-(aminomethyl)phenyl)-1H-benzo[d]imidazol-5-yl)methoxy)phenyl)acetic acid]
10 | < 1000 | NCc1cccc(-c2cc(COc3ccccc3CC(=O)O)cc3cc(Cl)oc23)c1 [Compound 169f, 2-(2-((7-(3-(aminomethyl)phenyl)-2-chlorobenzofuran-5-yl)methoxy)phenyl)acetic acid]
11 | < 1000 | NCc1nccc(-c2cc(COc3ccccc3CC(=O)O)cc3c2ccn3CC2CC2)c1F [Compound 170b, 2-(2-((4-(2-(aminomethyl)-3-fluoropyridin-4-yl)-1-(cyclopropylmethyl)-1H-indol-6-yl)methoxy)phenyl)acetic acid]
12 | < 1000 | NCc1nccc(-c2cc(COc3ccccc3CC(=O)O)c(F)c3ccoc23)c1F [Compound 171c, 2-(2-((7-(2-(aminomethyl)-3-fluoropyridin-4-yl)-4-fluorobenzofuran-5-yl)methoxy)phenyl)acetic acid]
13 | < 1000 | NCc1cc(-c2cc(COc3ccccc3CC(=O)O)c(F)c3ccoc23)ccn1 [Compound 172b, 2-(2-((7-(2-(aminomethyl)pyridin-4-yl)-4-fluorobenzofuran-5-yl)methoxy)phenyl)acetic acid]
14 | < 1000 | NCc1cccc(-c2cc(COc3ccccc3CC(=O)O)cc3c(C(F)(F)F)coc23)c1F [Compound 173b, 2-(2-((7-(3-(aminomethyl)-2-fluorophenyl)-3-(trifluoromethyl)benzofuran-5-yl)methoxy)phenyl)acetic acid]
15 | < 1000 | NCc1nccc(-c2cc(COc3ccccc3CC(=O)O)cc3occc23)c1F [Compound 174c, 2-(2-((4-(2-(aminomethyl)-3-fluoropyridin-4-yl)benzofuran-6-yl)methoxy)phenyl)acetic acid]
16 | < 1000 | NCc1cc(-c2cc(COc3ccccc3CC(=O)O)cc3c(C(F)(F)F)coc23)ccn1 [Compound 175c, 2-(2-((7-(2-(aminomethyl)pyridin-4-yl)-3-(trifluoromethyl)benzofuran-5-yl)methoxy)phenyl)acetic acid]
17 | < 1000 | NCc1cccc(-c2cc(COc3ccccc3CC(=O)O)cc3cc(CCO)oc23)c1F [Compound 179b, 2-(2-((7-(3-(aminomethyl)-2-fluorophenyl)-2-(2-hydroxyethyl)benzofuran-5-yl)methoxy)phenyl)acetic acid]
18 | < 1000 | NCc1nccc(-c2cc(COc3ccccc3CC(=O)O)cc3c(C(F)(F)F)coc23)c1F [Compound 181d, 2-(2-((7-(2-(aminomethyl)-3-fluoropyridin-4-yl)-3-(trifluoromethyl)benzofuran-5-yl)methoxy)phenyl)acetic acid]

Further lines, the compound ahead of its results:

Row | SMILES | IC50 [nM]
19 | NCc1cccc(-c2nc(C(=O)Nc3ccsc3CC(=O)O)c3cccn3n2)c1F [Compound 144d, 2-(3-(2-(3-(aminomethyl)-2-fluorophenyl)pyrrolo[2,1-f][1,2,4]triazine-4-carboxamido)thiophen-2-yl)acetic acid] | < 1000
20 | NCc1cccc(-c2nc(C(=O)Nc3cscc3CC(=O)O)cc3ccoc23)c1 [Compound 145c, 2-(4-(7-(3-(aminomethyl)phenyl)furo[2,3-c]pyridine-5-carboxamido)thiophen-3-yl)acetic acid] | < 1000
21 | Cc1ccc(S(=O)(=O)n2ccc3cc(COc4ccccc4CC(=O)O)cc(-c4cccc(CN)c4)c32)cc1 [Compound 146g, 2-(2-((7-(3-(aminomethyl)phenyl)-1-tosyl-1H-indol-5-yl)methoxy)phenyl)acetic acid] | 1000 to 10000
22 | NCc1cccc(-c2nc(C(=O)Nc3ccsc3CC(=O)O)cc3ccoc23)c1 [Compound 147c, 2-(3-(7-(3-(aminomethyl)phenyl)furo[2,3-c]pyridine-5-carboxamido)thiophen-2-yl)acetic acid] | < 1000
23 | NCc1cccc(-c2cc(CNc3ccccc3CC(=O)O)cc3ccoc23)c1F [Compound 152d, lithium 2-(2-(((7-(3-(aminomethyl)-2-fluorophenyl)benzofuran-5-yl)methyl)amino)phenyl)acetate] | < 1000
24 | NCc1cccc(-c2cc(CNc3ccccc3CC(=O)O)cc3ccoc23)c1 [Compound 153b, lithium 2-(2-(((7-(3-(aminomethyl)phenyl)benzofuran-5-yl)methyl)amino)phenyl)acetate] | < 1000
25 | NCc1cccc(-c2nc(C(=O)Nc3cccnc3CC(=O)O)c3cccn3n2)c1 [Compound 157d, 2-(3-(2-(3-(aminomethyl)phenyl)pyrrolo[2,1-f][1,2,4]triazine-4-carboxamido)pyridin-2-yl)acetic acid] | > 10000
26 | NCc1cccc(-c2cc(C(=O)Nc3ccccc3CC(=O)O)cc3cc[nH]c23)c1 [Compound 158c, 2-(2-(7-(3-(aminomethyl)phenyl)-1H-indole-5-carboxamido)phenyl)acetic acid] | 1000 to 10000
27 | NCc1cccc(-c2cc(COc3ccccc3CC(=O)O)cc3nncn23)c1 [Compound 159f, 2-(2-((5-(3-(aminomethyl)phenyl)-[1,2,4]triazolo[4,3-a]pyridin-7-yl)methoxy)phenyl)acetic acid] | 1000 to 10000
28 | NCc1cccc(-c2cc(C(=O)Nc3ccccc3CC(=O)O)cc3c2CCC3)c1 [Compound 160e, 2-(2-(7-(3-(aminomethyl)phenyl)-2,3-dihydro-1H-indene-5-carboxamido)phenyl)acetic acid] | < 1000
29 | Cc1ccc2c(C(=O)Nc3ccccc3CC(=O)O)nc(-c3cccc(CN)c3F)nn12 [Compound 161e, 2-(2-(2-(3-(aminomethyl)-2-fluorophenyl)-7-methylpyrrolo[2,1-f][1,2,4]triazine-4-carboxamido)phenyl)acetic acid] | < 1000
30 | Cc1ccc(OCc2cc(-c3cccc(CN)c3)c3occc3c2)c(CC(=O)O)c1 [Compound 162e, 2-(2-((7-(3-(aminomethyl)phenyl)benzofuran-5-yl)methoxy)-5-methylphenyl)acetic acid] | < 1000
31 | NCc1cccc(-c2cc(COc3ccncc3CC(=O)O)cc3ccoc23)c1 [Compound 163d, 2-(4-((7-(3-(aminomethyl)phenyl)benzofuran-5-yl)methoxy)pyridin-3-yl)acetic acid] | < 1000
32 | Cc1cccc(CC(=O)O)c1NC(=O)c1cc(-c2cccc(CN)c2)c2occc2c1 [Compound 165f, 2-(2-(7-(3-(aminomethyl)phenyl)benzofuran-5-carboxamido)-3-methylphenyl)acetic acid] | < 1000
33 | NCc1cc(-c2cc(COc3ccccc3CC(=O)O)nc3ccoc23)ccn1 [Compound 168c, 2-(2-((7-(2-(aminomethyl)pyridin-4-yl)furo[3,2-b]pyridin-5-yl)methoxy)phenyl)acetic acid] | < 1000
34 | Nc1n[nH]c2c(-c3cc(COc4ccccc4CC(=O)O)cc4ccoc34)cccc12 [Compound 176c, 2-(2-((7-(3-amino-1H-indazol-7-yl)benzofuran-5-yl)methoxy)phenyl)acetic acid] | 1000 to 10000
35 | NCc1cccc(-c2cc(COc3ccccc3CC(=O)O)cc3c2CCC3)c1 [Compound 177f, 2-(2-((7-(3-(aminomethyl)phenyl)-2,3-dihydro-1H-inden-5-yl)methoxy)phenyl)acetic acid] | < 1000
36 | NCc1cccc(-c2cc(COc3ccccc3CC(=O)O)cc3cc(CCO)oc23)c1 [Compound 178g, 2-(2-((7-(3-(aminomethyl)phenyl)-2-(2-hydroxyethyl)benzofuran-5-yl)methoxy)phenyl)acetic acid] | < 1000
37 | Nc1noc2c(-c3cc(COc4ccccc4CC(=O)O)cc4ccoc34)cccc12 [Compound 180e, 2-(2-((7-(3-aminobenzo[d]isoxazol-7-yl)benzofuran-5-yl)methoxy)phenyl)acetic acid] | < 1000

Source: US11370774B2, “Substituted benzofuran, benzopyrrole, benzothiophene, and structurally related complement inhibitors” (BioCryst Pharmaceuticals, Inc., priority 2018, dated 2022)
